Measured values: US11840517B2, “Lappaconitine derivative with analgesic activity, and preparation and application thereof” (priority 2021, dated 2023)

Test system: Kunming mice
Assay: Analgesic activity by acetic acid-induced writhing method
Format: in vivo
Conditions: Mus musculus, sc, subcutaneous, 15 min before i.p. 0.7% acetic acid, writhing inhibition vs blank group, read-out: Analgesia rate ± SEM (%); for inhibition in vivo at 10 mg/kg: Dosing concentration 10 mg/kg; for inhibition in vivo at 3.5 mg/kg: Dosing concentration 3.5 mg/kg
Experimental: The experimental animals were Kunming mice (male:female=1:1), weighed 22±2 g, which were provided by Chengdu dossy experimental animals Co., ltd., China. The mice were kept in the animal room of the School of Life Science and Engineering, Southwest Jiaotong University, where the animal room was set at a temperature of 23±2° C., a humidity of 55±5% and a photoperiod of 16:8 h (L:D). Before the experiment, the mice were freely fed for 2-3 days with water and feed to adapt to the new environment. Then, the mice were treated by water fasting for 12 h. 10 animals were allocated to each group to ensure that there are at least 6 sets of valid data in each group. The animal experiments were carried out in strict accordance with the national regulations on the management of experimental animals.
The compounds prepared in the examples provided herein and the positive control lappaconitine were all dissolved with 0.1 mol/L HCl according to the amount of the substance ratio of 1:1, and then diluted with physiological saline to a concentration to be determined. The samples to be tested were the compounds prepared the examples provided herein; the positive control was lappaconitine; and the blank control was physiological saline containing 0.1 mol/L HCl.
The animals in the control groups were subjected to the same treatment as those in the experimental group except that the samples to be test were replaced with physiological saline.
10 mice were randomly selected, male:female=1:1, were placed in independent cages. Each mouse was injected subcutaneously with the sample solution mentioned above at a dose of 0.1 mL/10 g body weight. After 15 min, a 0.7% acetic acid solution was intraperitoneally injected. The number of writhing reactions in each mouse within 15 minutes was recorded. The group that the mice were injected with physiological saline subcutaneously was the blank group; the group that the mice were injected with the sample to be tested was the experimental group; and the group that the mice were injected with lappaconitine was the positive group. The analgesic activity was represented by a percentage of the reduced number of writhing compared to the blank group (writhing inhibition rate), which were specifically as follows: writhing inhibition rate (analgesic activity)=(average number of writhing times in the blank group-average number of writhing times in the experimental group)/average number of writhing times in the blank group×100%.

Row | SMILES | inhibition in vivo at 10 mg/kg | other results
1 | CCN1C[C@]2(OC(=O)c3ccccc3NS(=O)(=O)c3ccccc3F)CC[C@H](OC)[C@@]34C2CC([C@@H]13)[C@@]1(O)C[C@H](OC)[C@H]2CC4[C@]1(O)[C@H]2OC (stereo partly drawn) [Compound 6] | 60.3 ± 5.94% | –
2 | CCN1C[C@]2(OC(=O)c3ccccc3NS(=O)(=O)Cc3ccc([N+](=O)[O-])cc3)CC[C@H](OC)[C@@]34C2CC([C@@H]13)[C@@]1(O)C[C@H](OC)[C@H]2CC4[C@]1(O)[C@H]2OC (stereo partly drawn) [Compound 11] | 42.4 ± 5.98% | –
3 | CCN1C[C@]2(OC(=O)c3ccccc3NS(=O)(=O)CC)CC[C@H](OC)C34C2CC([C@@H]13)[C@@]1(O)C[C@H](OC)[C@H]2CC4[C@]1(O)[C@H]2OC (stereo partly drawn) [Compound 27] | 4.02 ± 9.5% | –
4 | CCN1C[C@]2(OC(=O)c3ccccc3NC(=O)OC(C)C)CC[C@H](OC)[C@@]34C2CC([C@@H]13)[C@@]1(O)C[C@H](OC)[C@H]2CC4[C@]1(O)[C@H]2OC (stereo partly drawn) [Compound 14] | 28.4 ± 4.98% | –
5 | CCN1C[C@]2(OC(=O)c3ccccc3NS(=O)(=O)c3ccc(Cl)cc3)CC[C@H](OC)C34C2CC([C@@H]13)[C@@]1(O)C[C@H](OC)[C@H]2CC4[C@]1(O)[C@H]2OC (stereo partly drawn) [Compound 25] | 11.7 ± 7.78% | –
6 | CCN1C[C@]2(OC(=O)c3ccccc3NS(=O)(=O)c3cccs3)CC[C@H](OC)C34C2CC([C@@H]13)[C@@]1(O)C[C@H](OC)[C@H]2CC4[C@]1(O)[C@H]2OC (stereo partly drawn) [Compound 29] | 1.03 ± 5.37% | –
7 | CCN1C[C@]2(OC(=O)c3ccccc3NS(=O)(=O)c3ccc(F)cc3)CC[C@H](OC)C34C2CC([C@@H]13)[C@@]1(O)C[C@H](OC)[C@H]2CC4[C@]1(O)[C@H]2OC (stereo partly drawn) [Compound 23] | – | inhibition in vivo at 3.5 mg/kg: 14.7 ± 13.2%
8 | CCN1C[C@]2(OC(=O)c3ccccc3NC(=O)CC(C)(C)C)CC[C@H](OC)C3C2C[C@@H]([C@@H]1C)[C@@]1(O)CC(OC)[C@H]2CC3[C@]1(O)[C@H]2OC (stereo partly drawn) [Compound 47] | 24.9 ± 9.7% | –
9 | CCN1C[C@]2(OC(=O)c3ccccc3NC(=O)c3ccc(I)cc3)CC[C@H](OC)C3C2C[C@@H]([C@@H]1C)[C@@]1(O)CC(OC)[C@H]2CC3[C@]1(O)[C@H]2OC (stereo partly drawn) [Compound 43] | 31.1 ± 8.56% | –
10 | CCN1C[C@]2(OC(=O)c3ccccc3NC(=O)c3ccc(Cl)s3)CC[C@H](OC)C3C2C[C@@H]([C@@H]1C)[C@@]1(O)CC(OC)[C@H]2CC3[C@]1(O)[C@H]2OC (stereo partly drawn) [Compound 45] | 27.8 ± 5.83% | –
11 | CCOC(=O)Nc1ccccc1C(=O)O[C@@]12CC[C@H](OC)C34C1CC([C@H]3N(CC)C2)[C@@]1(O)C[C@H](OC)[C@H]2CC4[C@]1(O)[C@H]2OC (stereo partly drawn) [Compound 21] | 16.4 ± 11.5% | –
12 | CCN1C[C@]2(OC(=O)c3ccccc3NS(=O)(=O)c3ccc(C(F)(F)F)cc3)CC[C@H](OC)[C@@]34C2CC([C@@H]13)[C@@]1(O)C[C@H](OC)[C@H]2CC4[C@]1(O)[C@H]2OC (stereo partly drawn) [Compound 19] | 19.4 ± 5% | –
13 | CCN1C[C@]2(OC(=O)c3ccccc3NS(=O)(=O)c3ccc(C)cc3)CC[C@H](OC)[C@@]34C2CC([C@@H]13)[C@@]1(O)C[C@H](OC)[C@H]2CC4[C@]1(O)[C@H]2OC (stereo partly drawn) [Compound 15] | – | inhibition in vivo at 3.5 mg/kg: 27.7 ± 12.9%
14 | CCN1C[C@]2(OC(=O)c3ccccc3NS(=O)(=O)c3cccc(F)c3)CC[C@H](OC)[C@@]34C2CC([C@@H]13)[C@@]1(O)C[C@H](OC)[C@H]2CC4[C@]1(O)[C@H]2OC (stereo partly drawn) [Compound 7] | 50.2 ± 6.85% | –
15 | CCN1C[C@]2(OC(=O)c3ccccc3NC(=O)c3cnc(Cl)cn3)CC[C@H](OC)C3C2C[C@@H]([C@@H]1C)[C@@]1(O)CC(OC)[C@H]2CC3[C@]1(O)[C@H]2OC (stereo partly drawn) [Compound 41] | 31.5 ± 8.19% | –
16 | CCN1C[C@]2(OC(=O)c3ccccc3NS(=O)(=O)c3ccc(-c4ccccc4)cc3)CC[C@H](OC)C34C2CC([C@@H]13)[C@@]1(O)C[C@H](OC)[C@H]2CC4[C@]1(O)[C@H]2OC (stereo partly drawn) [Compound 22] | 16.1 ± 10.6% | –
17 | CCN1C[C@]2(OC(=O)c3ccccc3NC(=O)C3CCCO3)CC[C@H](OC)C3C2C[C@@H]([C@@H]1C)[C@@]1(O)CC(OC)[C@H]2CC3[C@]1(O)[C@H]2OC (stereo partly drawn) [Compound 48] | 21.8 ± 12.6% | –
18 | CCN1C[C@]2(OC(=O)c3ccccc3NS(=O)(=O)c3ccc(OC)cc3)CC[C@H](OC)[C@@]34C2CC([C@@H]13)[C@@]1(O)C[C@H](OC)[C@H]2CC4[C@]1(O)[C@H]2OC (stereo partly drawn) [Compound 20] | – | inhibition in vivo at 3.5 mg/kg: 16.8 ± 6.09%

Row | SMILES | inhibition in vivo at 10 mg/kg | other results
19 | CCN1C[C@]2(OC(=O)c3ccccc3NS(=O)(=O)c3cccc4c(N(C)C)cccc34)CC[C@H](OC)[C@@]34C2CC([C@@H]13)[C@@]1(O)C[C@H](OC)[C@H]2CC4[C@]1(O)[C@H]2OC (stereo partly drawn) [Compound 10] | 42.5 ± 2.56% | –
20 | CCN1C[C@]2(OC(=O)c3ccccc3NC(=O)C3CC3)CC[C@H](OC)C3C2C[C@@H]([C@@H]1C)[C@@]1(O)CC(OC)[C@H]2CC3[C@]1(O)[C@H]2OC (stereo partly drawn) [Compound 39] | – | inhibition in vivo at 5 mg/kg (Dosing concentration 5 mg/kg): 33.5 ± 7.27%
21 | CCN1C[C@]2(OC(=O)c3ccccc3NS(=O)(=O)c3ccc(Br)cc3)CC[C@H](OC)C34C2CC([C@@H]13)[C@@]1(O)C[C@H](OC)[C@H]2CC4[C@]1(O)[C@H]2OC (stereo partly drawn) [Compound 26] | 11.4 ± 7.58% | –
22 | CCN1C[C@]2(OC(=O)c3ccccc3NC(=O)c3ccc(Cl)cc3)CC[C@H](OC)C3C2C[C@@H]([C@@H]1C)[C@@]1(O)CC(OC)[C@H]2CC3[C@]1(O)[C@H]2OC (stereo partly drawn) [Compound 40] | 31.6 ± 12.6% | –
23 | CCN1C[C@]2(OC(=O)c3ccccc3NC(=O)NC)CC[C@H](OC)[C@@]34C2CC([C@@H]13)[C@@]1(O)C[C@H](OC)[C@H]2CC4[C@]1(O)[C@H]2OC (stereo partly drawn) [Compound 18] | 20 ± 6.67% | –
24 | CCN1C[C@]2(OC(=O)c3ccccc3NS(=O)(=O)Cc3ccccc3)CC[C@H](OC)[C@@]34C2CC([C@@H]13)[C@@]1(O)C[C@H](OC)[C@H]2CC4[C@]1(O)[C@H]2OC (stereo partly drawn) [Compound 9] | 43.8 ± 4.5% | –
25 | CCCCCCC(=O)Nc1ccccc1C(=O)O[C@@]12CC[C@H](OC)C34C1CC([C@H]3N(CC)C2)[C@@]1(O)C[C@H](OC)[C@H]2CC4[C@]1(O)[C@H]2OC (stereo partly drawn) [Compound 34] | 54.2 ± 6.15% | –
26 | CCN1C[C@]2(OC(=O)c3ccccc3NS(=O)(=O)Oc3ccccc3)CC[C@H](OC)C34C2CC([C@@H]13)[C@@]1(O)C[C@H](OC)[C@H]2CC4[C@]1(O)[C@H]2OC (stereo partly drawn) [Compound 28] | 1.03 ± 10.3% | –
27 | CCc1ccc(C(=O)Nc2ccccc2C(=O)O[C@@]23CC[C@H](OC)C4C2C[C@@H]([C@H](C)N(CC)C3)[C@@]2(O)CC(OC)[C@H]3CC4[C@]2(O)[C@H]3OC)cc1 (stereo partly drawn) [Compound 46] | 26.7 ± 7.95% | –
28 | C=CCOC(=O)Nc1ccccc1C(=O)O[C@@]12CC[C@H](OC)C34C1CC([C@H]3N(CC)C2)[C@@]1(O)C[C@H](OC)[C@H]2CC4[C@]1(O)[C@H]2OC (stereo partly drawn) [Compound 24] | 13.3 ± 9% | –
29 | CCN1C[C@]2(OC(=O)c3ccccc3NC(=O)C3CCCC3)CC[C@H](OC)C34C2CC([C@@H]13)[C@@]1(O)C[C@H](OC)[C@H]2CC4[C@]1(O)[C@H]2OC (stereo partly drawn) [Compound 33] | 56.9 ± 3.82% | –
30 | CCCOc1ccc(C(=O)Nc2ccccc2C(=O)O[C@@]23CC[C@H](OC)C45C2CC([C@H]4N(CC)C3)[C@@]2(O)C[C@H](OC)[C@H]3CC5[C@]2(O)[C@H]3OC)cc1 (stereo partly drawn) [Compound 35] | 48.4 ± 6.08% | –
31 | CCN1C[C@]2(OC(=O)c3ccccc3NC(=O)C3CCOCC3)CC[C@H](OC)C3C2C[C@@H]([C@@H]1C)[C@@]1(O)CC(OC)[C@H]2CC3[C@]1(O)[C@H]2OC (stereo partly drawn) [Compound 50] | 16.4 ± 8.07% | –
32 | CCN1C[C@]2(OC(=O)c3ccccc3NS(=O)(=O)c3cccc4cccnc34)CC[C@H](OC)[C@@]34C2CC([C@@H]13)[C@@]1(O)C[C@H](OC)[C@H]2CC4[C@]1(O)[C@H]2OC (stereo partly drawn) [Compound 12] | 41.9 ± 3.8% | –
33 | CCN1C[C@]2(OC(=O)c3ccccc3NS(=O)(=O)c3cccc4ccccc34)CC[C@H](OC)[C@@]34C2CC([C@@H]13)[C@@]1(O)C[C@H](OC)[C@H]2CC4[C@]1(O)[C@H]2OC (stereo partly drawn) [Compound 8] | 49.2 ± 5% | –
34 | CCCC(C)C(=O)Nc1ccccc1C(=O)O[C@@]12CC[C@H](OC)C3C1C[C@@H]([C@H](C)N(CC)C2)[C@@]1(O)CC(OC)[C@H]2CC3[C@]1(O)[C@H]2OC (stereo partly drawn) [Compound 42] | 31.3 ± 10.7% | –
35 | CCN1C[C@]2(OC(=O)c3ccccc3NC(=O)c3ccc(C(C)C)cc3)CC[C@H](OC)C3C2C[C@@H]([C@@H]1C)[C@@]1(O)CC(OC)[C@H]2CC3[C@]1(O)[C@H]2OC (stereo partly drawn) [Compound 49] | 21 ± 6.58% | –
36 | CCN1C[C@]2(OC(=O)c3ccccc3NS(=O)(=O)c3cccc(OC)c3)CC[C@H](OC)[C@@]34C2CC([C@@H]13)[C@@]1(O)C[C@H](OC)[C@H]2CC4[C@]1(O)[C@H]2OC (stereo partly drawn) [Compound 13] | – | inhibition in vivo at 3.5 mg/kg: 37.1 ± 15.7%
